Source: paper PMC11866022, “Long-Chain Cyclic Arylguanidines as Multifunctional Serotonin Receptor Ligands with Antiproliferative Activity” (ACS Omega, 2025)
“And” between values parts separate entries of the source, which are not always exact repeats. Equal entries are not always repeated. Where two headings read alike, the source gives them in different places.

How the values were obtained:
[1] = calibration standards, assigned values, no reference given; cited from earlier work
[2] = calibration standards, assigned values, no reference given; cited from earlier work; remark: listed apart in the source
[3] = test system: LN-229 glioblastoma cells; experiment: Antiproliferative activity (MTS), LN-229; format: cell-based, human; settings: MTS assay, 72 h
Description: (§1) These cell lines were characterized by different mutation profiles, the main one being the variable status of the p53 protein. In detail, U87MG cells have a wild-type p53 protein, while astrocytoma and the rest of GBM cells harbor mutated p53 protein. Additional assays were performed on MCF7 breast cancer and AsPC-1 pancreatic cancer cells. The wide range of tested lines was aimed at screening the anticancer potential of the tested compounds. The first represents one of the most common and the second one of the most aggressive cancers in the world. Comparing the activity of compounds on GBM cells to other types of cancer may reveal their selectivity and usefulness in targeted therapies. The cytotoxicity of the compounds on normal human astrocytes (NHA) and Feline catus astrocyte (PG-4) was determined. Tests on normal lines serve to verify the potential toxicity of the tested compounds on healthy cells. Due to the targeting of CNS tumors, astrocytes were selected as normal lines.
(§2) The detailed procedure is presented in previous publications.[53] […] Cells were cultured in appropriate media, supplemented with FBS, antibiotics, and other supplements, and incubated at 37 °C with 5% CO2. […] Cell viability was assessed using the MTS assay, and the inhibitory concentration (IC50) was calculated using GraphPad Prism 8.0. Each compound was tested in triplicate across multiple experiments.

[4] = test system: normal human astrocytes (NHA); experiment: Cytotoxicity (MTS), normal human astrocytes; format: cell-based; settings: 72 h, normal human astrocytes, MTS assay
Description: as §1, with “The chosen group of ligands was further examined for their ability to inhibit proliferation across multiple cancer cell lines related to the CNS system (1321N1, U87MG, LN-229, and U-251). These” for “These”
(§3) The detailed procedure is presented in previous publications.[53] Briefly, the study utilized various human cancer and normal cell lines, including LN-229 (glioblastoma), MCF7 (breast carcinoma), HepG2 (hepatoma), U-251 (glioblastoma), U87MG (glioblastoma), AsPC-1 (pancreatic adenocarcinoma), and NHA (normal human astrocytes). Cells were cultured in appropriate media, supplemented with FBS, antibiotics, and other supplements, and incubated at 37 °C with 5% CO2. Compounds were dissolved in DMSO, prepared at various concentrations (1–25 μM), and applied to the cells for 72 h. Cell viability was assessed using the MTS assay, and the inhibitory concentration (IC50) was calculated using GraphPad Prism 8.0. Each compound was tested in triplicate across multiple experiments.

[5] = test system: U-251 glioblastoma cells; experiment: Antiproliferative activity (MTS), U-251; format: cell-based, human; settings: MTS assay, 72 h
Description: as §1, §2

[6] = test system: MCF7 breast cancer cells; experiment: Antiproliferative activity (MTS), MCF7; format: cell-based, human; settings: MTS assay, 72 h
Description: as §1, §2

[7] = Affinity to phospholipids, CHI IAM (Valko protocol); format: physicochemical; settings: IAM column
Description: (§4) Lipophilicity and affinity for phospholipids for each investigated molecule were assessed. Additionally, selected compounds with the highest biological activities have been characterized by their affinity plasma proteins. All experiments were performed using protocols developed by Valko.[35] These methods facilitated the calculation of chromatographic hydrophobicity indices (CHI) and plasma protein binding percentages (%PPB) in a biochromatographic experiment, with results compared to the reference. A detailed description of the experiments is provided in the Supporting Information (SI), along with the raw data. […] Although high lipophilicity may limit the medical use of the analyzed compounds since they may tend to accumulate excessively in the human body, it is remarkable that several clinically used drugs also have high lipophilicity. […] (Table 5).
(§5) The detailed procedure is presented in previous publications.[53] High-performance liquid chromatography (HPLC) analyses were conducted using the Prominence-1 LC-2030C 3D system (Shimadzu) with a DAD detector, employing three different chromatographic columns with specific stationary phases and mobile phases. The analysis was performed at 30 °C with a flow rate of 1.5 mL/min for IAM and C18 columns, and 0.9 mL/min for the Chiralpak column. Calibration standards for the columns were sourced from various suppliers and dissolved in dimethyl sulfoxide. Detection occurred in the UV range (190–300 nm) with a 5 μL injection volume. Each compound was analyzed in triplicate. Retention times for the tested compounds and calibration standards are provided in the Supporting Information (Tables S1 and S2).

[8] = test system: U87MG glioblastoma cells; experiment: Antiproliferative activity (MTS), U87MG; format: cell-based, human; settings: MTS assay
Description: as §1, §2
Supplementary materials - Biological research
B) U87MG glioblastoma multiforme line.
and U87MG glioblastoma multiforme line for C) PP 3; D) PP 6; E) PP 8; F) PP 10; G) PP 11; H) PP

[9] = test system: AsPC-1 pancreatic cancer cells; experiment: Antiproliferative activity (MTS), AsPC-1; format: cell-based, human; settings: MTS assay, 72 h
Description: as §1, with “The chosen group of ligands was further examined for their ability to inhibit proliferation across multiple cancer cell lines related to the CNS system (1321N1, U87MG, LN-229, and U-251). These” for “These”
as §3

[10] = Metabolic stability in mouse liver microsomes; format: in vitro ADME; settings: MLMs, 120 min
From the text: Moving on to the next parameter, which is metabolism, we determined metabolic stability, using mouse liver microsomes (MLMs). […]
Main metabolic pathways are marked in red.

[11] = test system: 1321N1 astrocytoma cells; experiment: Antiproliferative activity (MTS), 1321N1; format: cell-based, human; settings: MTS assay
Description: as §1, §2
Supplementary materials - Biological research […]

[12] = biological target: T1, 5-HT6 (Homo sapiens, UniProt P50406); experiment: Radioligand binding assay, 5-HT6 ([3H]-LSD); settings: HEK293 cell line with human 5-HT6R; 2 nM [3H]-LSD
T1 construct: expressed in transfected cells; host or cells: HEK293
T1 sequence (P50406 whole entry): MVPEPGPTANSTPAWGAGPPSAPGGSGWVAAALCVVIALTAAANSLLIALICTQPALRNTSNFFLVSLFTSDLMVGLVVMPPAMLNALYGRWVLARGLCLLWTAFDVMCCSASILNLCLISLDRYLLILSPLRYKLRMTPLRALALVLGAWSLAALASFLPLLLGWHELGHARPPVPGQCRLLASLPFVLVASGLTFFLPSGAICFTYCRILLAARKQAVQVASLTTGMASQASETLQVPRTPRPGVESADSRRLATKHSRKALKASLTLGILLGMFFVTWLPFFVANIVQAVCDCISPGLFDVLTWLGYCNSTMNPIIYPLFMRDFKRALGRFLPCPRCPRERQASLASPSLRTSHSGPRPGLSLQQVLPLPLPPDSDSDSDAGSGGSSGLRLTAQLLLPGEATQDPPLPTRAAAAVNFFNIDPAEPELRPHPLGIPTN
Description: Ligand affinity for 5-HT6 receptors was subsequently tested with a radioligand binding assay, using the HEK293 cell line with human 5-HT6R, aiming to select compounds with the strongest affinity. Three compounds belonging to 2-naphthalenesulfonamide derivatives of 3,4-dihydroquinazolin-2-amines were obtained (Table 1).
The detailed procedure is presented in previous publications.[53] Assays were performed by incubating for 1 h at 37 °C (room temperature for 5-HT1A) in 200 μL volumes on 96-well plates. The reaction was terminated by rapid filtration using Unifilter plates, and radioactivity on the filters was measured with a PerkinElmer Microbeta plate reader. Radioligands used were:
Eight concentrations (10^–4 to 10^–11 M) were tested in triplicate for each compound. Inhibition constants (Ki) were calculated using the Cheng–Prusoff equation.[54] The results are expressed as the means of at least two independent experiments.

[13] = Lipophilicity, chromatographic hydrophobicity index on C18 (Valko protocol); format: physicochemical
Description: as §4, §5

[14] = biological target: T2, human serum albumin (HSA) (Homo sapiens, UniProt P02768); experiment: HSA binding by biochromatography (HSA column); format: in vitro ADME
T2 construct: purchased
T2 sequence (P02768 25-609): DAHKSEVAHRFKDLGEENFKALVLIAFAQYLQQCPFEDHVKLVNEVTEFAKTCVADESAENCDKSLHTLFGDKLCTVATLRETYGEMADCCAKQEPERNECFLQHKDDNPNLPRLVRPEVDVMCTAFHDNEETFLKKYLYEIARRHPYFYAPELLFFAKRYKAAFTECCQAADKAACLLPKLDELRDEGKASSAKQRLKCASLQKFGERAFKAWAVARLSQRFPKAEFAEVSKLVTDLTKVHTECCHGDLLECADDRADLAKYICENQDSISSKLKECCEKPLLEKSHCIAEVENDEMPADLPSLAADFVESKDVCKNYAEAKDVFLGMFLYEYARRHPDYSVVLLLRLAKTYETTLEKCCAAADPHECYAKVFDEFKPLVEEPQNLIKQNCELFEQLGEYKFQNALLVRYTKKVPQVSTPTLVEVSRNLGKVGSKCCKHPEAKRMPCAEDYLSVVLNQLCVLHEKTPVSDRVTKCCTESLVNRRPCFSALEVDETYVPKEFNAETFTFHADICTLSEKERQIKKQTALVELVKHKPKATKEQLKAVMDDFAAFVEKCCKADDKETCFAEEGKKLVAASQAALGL
Description: as §4, §5

[15] = test system: HSA and AGP (24:1); experiment: in vitro; settings: human, plasma
[16] = test system: HSA and AGP in a ratio 24:1; settings: human

CC(=O)c1ccccc1 [Acetophenone]
CHI C18 at pH 2.6 of the calibration set [1]: 64.1
CHI IAM of the calibration set [2]: 17.2

CN(C)C/C=C/C(=O)Nc1cc2c(Nc3ccc(F)c(Cl)c3)ncnc2cc1O[C@H]1CCOC1 [Afatinib, reference compound]
IC50 ([3]; Homo sapiens, LN-229): 9.8 µM
IC50 ([4]; Homo sapiens, Astrocyte): 7.5 µM
IC50 ([5]; Homo sapiens, U-251): 27 µM

c1ccc2[nH]cnc2c1 [Benzimidazole]
CHI C18 at pH 2.6 of the calibration set [1]: 6.3

CCCC(=O)c1ccccc1 [Butyrophenone]
CHI C18 at pH 2.6 of the calibration set [1]: 87.3
CHI IAM of the calibration set [2]: 32

COc1cc2c(c(OC)c1OC)-c1ccc(OC)c(=O)cc1[C@@H](NC(C)=O)CC2 [Colichicine]
CHI C18 at pH 2.6 of the calibration set [1]: 43.9

c1ccc2[nH]ccc2c1 [Indole]
CHI C18 at pH 2.6 of the calibration set [1]: 72.1

CC1NC(NCCCCCCNS(=O)(=O)c2cccc3ccccc23)=Nc2cccc(F)c21 (centres unmarked) [PP 11, N-{6-[(5-Fluoro-4-methyl-3,4-dihydroquinazolin-2-yl)amino]hexyl}naphthalene-1-sulfonamide]
IC50 ([6]; Homo sapiens, MCF7): 9.1 ± 0.8 µM
CHI IAM [7]: 60.1
IC50 ([8]; Homo sapiens, U-87 MG): 8.5 ± 0.7 µM
IC50 ([9]; Homo sapiens, ASPC1): 13.8 ± 0.3 µM
main metabolic pathway [10]: double hydroxylation and double bond reduction
metabolic stability, % of remaining [10]: 74.22%
IC50 ([11]; Homo sapiens, 1321-N1): 5.7 ± 0.1 µM
IC50 ([3]; Homo sapiens, LN-229): > 25 µM
IC50 ([4]; Homo sapiens, Astrocyte): 4.5 µM
IC50 [4]: 4.4 ± 1.3 µM
Ki [12]: 0.222 ± 0.056 µM
CHI C18 pH 2.6 [13]: 103.4
CHI C18 pH 7.4 [13]: 103.1
CHI C18 pH 10.5 [13]: 93.1
IC50 ([5]; Homo sapiens, U-251): 12.2 ± 0.3 µM
%HSA ([14]; HSA column): 99.2%
logKHSA ([14]; HSA column): 1.75 and 1.8

CCC(=O)c1ccccc1 [Propiophenone]
CHI C18 at pH 2.6 of the calibration set [1]: 77.4
CHI IAM of the calibration set [2]: 25.9

Cn1c(=O)c2[nH]cnc2n(C)c1=O [Theophylline]
CHI C18 at pH 2.6 of the calibration set [1]: 17.9

CCCCC(=O)c1ccccc1 [Valerophenone]
CHI C18 at pH 2.6 of the calibration set [1]: 96.4
CHI IAM of the calibration set [2]: 37.3

CC(=O)CC(c1ccccc1)c1c(O)c2ccccc2oc1=O (centres unmarked) [Warfarin]
fraction unbound [15]: 0.015
PPB kD [16]: 9.5 µM

N-{2-[4-(1,2-Benzothiazol-3-yl)piperazin-1-yl]ethyl}-1,2-dihydroquinazolin-2-amine [PP 21]
IC50 [6]: > 25 µM
IC50 [9]: 7.4 ± 0.5 µM
IC50 [3]: 9.9 ± 0.7 µM
IC50 [4]: 4.7 ± 0.2 µM
Ki [12]: 0.605 ± 0.151 µM
IC50 [5]: 13 ± 0.4 µM

N-{2-[4-(1-Benzothiophen-4-yl)piperazin-1-yl]ethyl}-1,2-dihydroquinazolin-2-amine [PP 22]
IC50 [6]: 14.5 ± 0.2 µM
CHI IAM [7]: 56.4
IC50 [8]: 13.8 ± 0.9 µM
IC50 [9]: 12.5 ± 0.4 µM
IC50 [11]: 10.4 ± 0.6 µM
IC50 [3]: > 25 µM
IC50 [4]: 8.1 ± 0.2 µM
Ki [12]: 0.278 ± 0.07 µM
CHI C18 pH 2.6 [13]: 56.4
CHI C18 pH 7.4 [13]: 115.8
CHI C18 pH 10.5 [13]: 168.7
IC50 [5]: 4.3 ± 0.6 µM
%HSA [14]: 98.4%
